# Data: patent publication US11197856B2, “Bicyclic compounds and methods for their use in treating autism” (priority 2013, dated 2021)
# How the values were obtained:
# Krox24 = Krox24 immunohistochemical staining of hippocampus; type: in vivo, male Wistar rats; details: CA1-2 regions; vs vehicle
# Experimental: Aged rats (male Wistar rats, 18-20 months old) were divided into four groups: two vehicle-treated (groups 1 and 3) and two G-2-AllylP treated (groups 2 and 4) (all groups n=6-8). Cyclic G-2-AllylP was synthesised by the Department of Medicinal Chemistry and dissolved in normal saline before the treatment. On day 1 a single dose of cyclic G-2-AllylP was given centrally (20 ng/animal, i.c.v.) to the animals in groups 2 and 4; saline was administered to groups 1 and 3. The memory tests using Novel Object Recognition Test started either on day 3 (groups 1 and 2) or 24 (groups 3 and 4) after the treatment. On the completion of the NORT, the rats were killed with an overdose of sodium pentobarbital and were perfused transcardially with normal saline followed by 10% formalin. Tissues collected at day 7 in groups 1 and 2, and at day 28 from groups 3 and 4. The brains were kept in the same fixative for a minimum of 2 days before being processed using a standard paraffin embedding procedure. Briefly, small blocks (10×10×3 mm) of tissue were fixed for up to 24 hrs. The blocks were then infiltrated and embedded with paraffin and cut in ribbons and mounted on slides. Slides were then stored until immunostaining was commenced. Synaptogenesis in brain tissue was examined using immunohistochemical staining.
# The neuronal transcript factor Krox24 staining is used as a marker for neuronal plasticity. […]
# layer 5 cortical neurons = experiment: Intracellular whole-cell recordings of spontaneous EPSCs in acute brain slices; type: in vivo, mice; details: MeCP2-/y animals; 20 mg/kg daily; vs vehicle
# interleukin-6 = experiment: PBBI in rats: IL-6 ELISA; type: in vivo
# Text: The unilateral frontal PBBI model, which mimics the ballistic dynamics of a bullet or fragment wound to the head (Williams, 2003; Williams, 2006), was induced by stereotactic insertion of a custom probe through the right frontal cortex. A temporary cavity was formed by the rapid inflation/deflation (i.e. <40 msec) of an elastic balloon attached to the end of the probe. The PBBI apparatus consisted of a computer-controlled hydraulic pressure generator (Mitre Corp McLean, Va.), a PBBI probe and a stereotaxic frame equipped with a custom-designed probe holder as previously described (Lu, 2009; Williams, 2003). The injury severity was determined by the size of the balloon under control of the computerized hydraulic pressure. The balloon diameter calibrated to 0.63 cm expansion represented 10% of the total rat brain volume thus expressing a 10% PBBI. All surgeries were done under anaesthesia. Groups tested: Sham+vehicle, PBBI+vehicle, PBBI+cG-2-AllylP (30 mg/kg by oral gavage, 30 min post-injury, and again once daily until endpoint). AU procedures were approved by the Institutional Animal Care and Use Committee of WRAIR. Animals were housed in a facility accredited by the AAALAC.
# cG-2-AllylP (or vehicle) was administered to the animals via oral gavage at a dose of 30 mg/kg.
# Target proteins were quantified with interleukin 1 beta (“IL-1beta”) (GenWay Biotech GWB-SKR107) and interleukin-6 (“IL-6”) (GenWay Biotech GWB-ZZD100) ELISAs according to manufacturer's instructions. Levels were calculated and normalized to total protein concentration as determined by BCA assay (n=9-10 per group).
# [1] = tested on: Male patients having Fragile X Syndrome
# Experimental: Symptoms are evaluated using one or more of the clinical evaluative tools discussed herein above. Each patient is scored according to one or more clinical evaluative tool for one or more of Repetitive Behavior (RBB), Anxiety, and Sociability. A Clinical Global Impression-Severity (CGI-S) score of 4 or greater, or an ABC total score of 30 or greater are enrolled.
# The enrolled patients are divided into groups. […] Placebo (n=20) is strawberry diluent and water.
# Efficacy is determined using Clinical Global Impression of Severity (CGI-S), Clinical Global Impression of Improvement (CGI-I), Fragile X Syndrome Rating Scale, clinician-completed Fragile X Domain Specific Concerns (Visual Analog Scale), Caregiver Top Three Concerns (Visual Analogue Scale), Aberrant Behavior Checklist, Vineland Adaptive Behavior Scale, CASI-16, CYBOCS-PDD, seizure diary, computerized eye tracking, computerized measurement of cognition using the KiTap, and the Expressive Language Sampling Task.
# Serum levels and changes of standard hematology and chemistry parameters (including thyroid function) are calculated from Baseline through to Day 70. Fundoscopy and tonsil size is documented at Baseline, and Days 14, 28, 42, 36, 70 and 84. […] ECG is assessed at Screening, Baseline, Days 28, 42, 36 and 70. […]
# [2] = tested on: growth-associated protein-43 (GAP-43); experiment: PBBI in rats: GAP-43 immunohistochemistry in hippocampus; type: in vivo, Sprague-Dawley rats; details: 30 mg/kg oral once daily
# Experimental: (§1) The methods for producing PBBI in this Example is the same as described above for Example 26. Adult Sprague-Dawley rats were randomly assigned into three groups: sham (craniotomy only), PBBI+vehicle (i.e. H2O), and PBBI+cG-2-AllylP. cG-2-AllylP (or vehicle) was administered via oral gavage at 30 mg/kg at 30 min post-injury and continued once daily thereafter for 7, 14 or 28 days. At each treatment endpoint, rats were perfused and brains were processed for histological analysis (n=5-6/group/time-point). For detection of axonal sprouting, immunohistochemical detection of growth-associated protein-43 (GAP-43) was employed. Synaptogenesis was determined by immunohistochemistry for synaptophysin (SYN). For histological quantification, the integrated density in the hippocampal region was determined using NIH ImageJ software.
# MeCP2 knockout mice = experiment: Nocturnal activity measurements; type: in vivo; details: MeCP2 knockout mice after 6 weeks; nocturnal infrared beam crossing
# Experimental: Spontaneous motor activity is measured by using an infrared beam-activated movement-monitoring chamber (Opto-Varimax-MiniA; Columbus Instruments, Columbus, Ohio). For each experiment, a mouse is placed in the chamber at least 3 h before recordings started. Movement is monitored during the normal 12-h dark cycle (7 p.m. to 7 a.m.). One dark cycle per animal per time point is collected.
# MeCP2−/y mice develop Rett-like symptoms beginning at 4-6 weeks of age when they progressively become lethargic, develop gait ataxia and […] (Chen et al., 2001). Baseline locomotor activity is also recorded in mice after 6 weeks by counting nocturnal infrared beam crossing events within a caged area.
# synaptophysin (SYN) = experiment: PBBI in rats: synaptophysin (SYN) immunohistochemistry in hippocampus; type: in vivo, Sprague-Dawley rats; details: 30 mg/kg oral once daily
# Experimental: as §1
smiles,measurement,setting,value
"C=CC[C@]12CCCN1C(=O)CNC2=O [cG-2-AllylP, (8aS)-Allyl-hexahydropyrrolo[1,2-a]pyrazine-1,4-dione]",density of the Krox24 staining,Krox24,trend towards the increased density
same,EPSC amplitude,layer 5 cortical neurons,significantly larger in amplitude
same,IL-6 levels,"interleukin-6; 24 hrs. after PBBI, 30 mg/kg oral gavage",decreased IL-6 levels
same,IL-6 levels,"interleukin-6; 3 days after PBBI, 30 mg/kg oral gavage once daily",little effect at 3 days
same,IL-6 levels,"interleukin-6; 7 days after PBBI, 30 mg/kg oral gavage once daily",decreased IL-6 levels
same,clinical outcomes (evaluative tools),"[1]; 35 or 70 mg/kg b.i.d. oral, 28 days",clinically relevant and significant effects to improve clinical outcomes
same,pERK and pAkt levels,[1]; peripheral lymphocytes,normalizes pERK and pAkt levels
same,injury-induced reduction in GAP-43 expression,[2]; 7d or 14d post-PBBI,no effect on injury-induced reductions
same,PBBI-induced reduction in GAP-43 expression,[2]; 28 days post-injury,attenuated PBBI-induced reductions
same,locomotor activity levels,MeCP2 knockout mice,elevates these levels
same,injury-induced reduction in SYN expression,synaptophysin (SYN); 7d or 14d post-PBBI,no effect on injury-induced reductions
same,PBBI-induced reduction in SYN expression,synaptophysin (SYN); 28 days post-injury,attenuated PBBI-induced reductions
